In ChEMBL document CHEMBL1201862, “PubChem BioAssay data set” (2004):
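Method: 48-hour compound exposure of cells in 96-well plates, five concentrations, linear interpolation of endpoints. At the GI50, growth is halved.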 Active and inactive are the calls of the source. Cut-off read from the data, not from the text of the source: active = GI50 up to about 1.1 µM and inactive = higher.

What was measured:
Assay in all cases: DTP human tumour cell line panel, 48 h
[1] = system: 786-0
[2] = system: A498
[3] = system: A549
[4] = system: ACHN
[5] = system: CAKI-1
[6] = system: COLO 205
[7] = system: DLD-1
[8] = system: DMS-114
[9] = system: DMS-273
[10] = system: EKVX
[11] = system: HCC 2998
[12] = system: HCT-116
[13] = system: HCT-15
[14] = system: HL-60
[15] = system: HOP-18
[16] = system: HOP-62
[17] = system: K562
[18] = system: KM12
[19] = system: LOX IMVI
[20] = system: LXFL 529
[21] = system: M14
[22] = system: M19-MEL
[23] = system: MOLT-4
[24] = system: NCI-H226
[25] = system: NCI-H23
[26] = system: NCI-H460
[27] = system: OVCAR-3
[28] = system: OVCAR-4
[29] = system: OVCAR-5
[30] = system: OVCAR-8
[31] = system: RPMI-8226
[32] = system: RXF 393
[33] = system: RXF 631
[34] = system: SF-268
[35] = system: SF-295
[36] = system: SF-539
[37] = system: SK-MEL-28
[38] = system: SK-MEL-2
[39] = system: SK-MEL-5
[40] = system: SK-OV-3
[41] = system: SN12C
[42] = system: SNB-19
[43] = system: SNB-75
[44] = system: SNB-78
[45] = system: SW-620
[46] = system: TK-10
[47] = system: U-251
[48] = system: UACC-62
[49] = system: UO-31

## CCOc1ccc(N2C(=O)/C(=C/c3ccc(N(CCC#N)CCC#N)cc3)N=C2c2cc([N+](=O)[O-])ccc2Cl)cc1
[1]
  GI50: 12.4 µM (inactive)
[2]
  GI50: 48.6 µM (inactive)
[3]
  GI50: 45 µM (inactive)
[4]
  GI50: 49.9 µM (inactive)
[5]
  GI50: 14.8 µM (inactive)
[6]
  GI50: 17.6 µM (inactive)
[7]
  GI50: 32.2 µM (inactive)
[8]
  GI50: 33.9 µM (inactive)
[9]
  GI50: 14.7 µM (inactive)
[10]
  GI50: 27.4 µM (inactive)
[11]
  GI50: 37.2 µM (inactive)
[12]
  GI50: 21.6 µM (inactive)
[13]
  GI50: 33.8 µM
[14]
  GI50: 47.6 µM (inactive)
[15]
  GI50: > 100 µM (inactive)
[16]
  GI50: 73.1 µM (inactive)
[17]
  GI50: 21.3 µM (inactive)
[18]
  GI50: 18.9 µM (inactive)
[19]
  GI50: 23 µM (inactive)
[20]
  GI50: 30 µM (inactive)
[21]
  GI50: 24.1 µM (inactive)
[22]
  GI50: 24.2 µM (inactive)
[23]
  GI50: 191 nM (active)
[24]
  GI50: 42.4 µM (inactive)
[25]
  GI50: 40.8 µM (inactive)
[26]
  GI50: 23.5 µM (inactive)
[27]
  GI50: 17.7 µM (inactive)
[28]
  GI50: 59 µM (inactive)
[29]
  GI50: > 100 µM (inactive)
[30]
  GI50: 35.3 µM (inactive)
[31]
  GI50: 15.7 µM (inactive)
[32]
  GI50: 12.2 µM (inactive)
[33]
  GI50: 39.6 µM (inactive)
[34]
  GI50: 30.8 µM (inactive)
[35]
  GI50: 24.2 µM (inactive)
[36]
  GI50: 27.2 µM (inactive)
[37]
  GI50: 7.67 µM (inactive)
[38]
  GI50: > 100 µM (inactive)
[39]
  GI50: 18.6 µM (inactive)
[40]
  GI50: > 100 µM (inactive)
[41]
  GI50: 63 µM (inactive)
[42]
  GI50: 35.8 µM (inactive)
[43]
  GI50: 30.3 µM (inactive)
[44]
  GI50: > 100 µM (inactive)
[45]
  GI50: 23 µM (inactive)
[46]
  GI50: 58.1 µM (inactive)
[47]
  GI50: 51.5 µM (inactive)
[48]
  GI50: 26.7 µM (inactive)
[49]
  GI50: 39.4 µM (inactive)
